The text below walks through data of US20230027219A1, “Skin Care Compositions and Methods of Use Thereof” (Unigen, Inc., priority 2013, published 2023).

Where two headings read alike, the source gives them in different places.

Experiment [1] concerns 3T3-L1 cells. The experiment can be described thus: Lipid accumulation assay in adipocytes (Oil red O staining). It counts as cell-based, Mouse. As to conditions: for inhibition at 0.005 µg/mL / inhibition at 0.01 µg/mL / inhibition at 0.05 µg/mL / inhibition at 0.1 µg/mL / inhibition at 0.5 µg/mL: Mus musculus, read-out: Inhibition (%) of lipid accumulation; for effect on lipid accumulation, in words: over the doses tested, 3T3-L1, Oil red O.
Experimental: Mouse embryo fibroblast 3T3-L1 cells (purchased from American Type Culture Collection) were cultured in Dulbecco's modified Eagle's medium (DMEM) (GIBCO) containing 10% bovine calf serum until confluent. Two days post-confluence (D0), the cells were stimulated to differentiate into an adipocyte-like phenotype by adding DMEM containing 10% fetal bovine serum (FBS), 5 μg/ml insulin, 0.5 mM 3-isobutyl-1-methylxanthine (IBMX) and 1 μM dexamethasone for two days (D2). Cells were then maintained in 10% FBS/DMEM medium with 5 μg/ml insulin for another two days (D4), followed by culturing with 10% FBS/DMEM medium for four days (D8). Test samples at various concentrations were added to the cells from Day 0 to Day 8 of adipogenesis, during which the medium was exchanged every 2 days with fresh medium containing the test sample. On Day 8, lipid droplets in cells were stained with Oil red O (ORO) and signal measured at 510 nm.
Briefly, three concentrations of Annona AS-EE3 (100% EtOH) and AS-EE4 (70% EtOH) extracts (0.1, 0.5 and 1 μg/ml) and positive control TNF-α(10 ng/mL) were used to treat 3T3-L1 cells during the differentiation period (from Day 0 to Day 8 of adipogenesis). Cell culture medium containing extracts was changed every 2 days and ORO staining was used to detect lipid droplet accumulation in cells.
Three concentrations of the Annona hexane extracts (0.05, 0.1 and 0.5 μg/ml) were used to treat 3T3-L1 cells during the differentiation period (from Day 0 to Day 8 of adipogenesis), then stained for lipid accumulation on Day 8.
Similar to the previous extracts, each EtOAc extract was tested at three doses of 0.05 μg/ml, 0.1 μg/ml and 0.5 μg/ml.
Similar to the previous extracts, each of the CO2 extracts were tested at the following six doses of 0.0625 μg/ml, 0.125 μg/ml, 0.25 μg/ml, 0.35 μg/ml, 0.5 μg/ml, and 1 μg/ml.

In experiment [2] the test system is 3T3-L1 pre-adipocytes. Put plainly: Intracellular triglyceride (TG) content assay. As to conditions: 10 ng/ml; 3T3-L1, 8 days. It counts as cell-based, Mouse. How it is done:
[…] The cells were washed with PBS, scraped with homogenizing solutions. The residual cell lysate was centrifuged at 3000 g for 5 min to remove fat layers. The supernatants were assayed. The triglyceride levels were measured by using a commercial kit according to the manufacturer's instructions (#10010303, Cayman Chem., USA). As adipocytes differentiate, their intracellular levels of triglyceride increase continuously.

The subject of experiment [3] is human subcutaneous preadipocytes. Put plainly: Differentiation assay in human subcutaneous adipocytes (glycerol liberated from triglyceride). It counts as cell-based. Here is the method:
The inhibition of lipid accumulation and differentiation assays examined the ability of compounds to inhibit the differentiation of human subcutaneous preadipocytes into adipocytes. Cells were grown to confluency such that all cells were synchronized and then differentiated. Cryopreserved preadipocytes were passaged with preadipocyte medium (PM-1). Cells were fed every other day with PM-1 until confluent. To induce differentiation, PM-1 medium was replaced with differentiation medium (DM-2) including insulin, dexamethasone, isobutyl methylxanthine, PPAR-γ agonist, TNF-α and test compounds at day two. After 7 days, the medium was changed to Adipocyte medium without the test compounds. On day 16 of the assay, cytotoxicity and lipid accumulation were measured. Medium was removed, leaving 50 μl in each well. 10 μl Cell Titer Blue reagent was added to each well. Cells were incubated at 37° C. for 2 hours. […] Fluorescence was measured at excitation 560 nm/emission 590 nm. […] The optical density was read at 540 nm after 15 minutes. […]
The lipid accumulation assay of Example 28 was carried out with Annona squamosa extracts. […] After 2 weeks of treatment, cells were washed with PBS, lysed and triglyceride measured by total TG assay kit (Zen-bio). The reagents contain microbial lipase and the amount of glycerol liberated from triglyceride was measured. […]

With `CCCCCCC(O)CCCC(O)C1CCC(C2CCC(C(O)CCCCCCCCCCCCC3=CC(C)OC3=O)O2)O1` (stereo not drawn) [SA1, Squamocin], in experiment [1] (3T3-L1, 0 h), the inhibition – broadly, the share of the control response that was lost under treatment – at 0.005 µg/mL came to 10.7 ± 10.9%; the inhibition at 0.01 µg/mL turned out to be 37.8 ± 4.4%; the inhibition at 0.05 µg/mL is 72.3 ± 3.1%; the inhibition at 0.1 µg/mL stood at 71.6 ± 1.9%. For the same molecule, the inhibition at 0.5 µg/mL in experiment [1] (3T3-L1, 0 h) stood at 66.7 ± 4.7%. Besides, the “effect on lipid accumulation, in words” value in experiment [1] is “high efficacy in a dose dependent manner”.
On to `C=C1C[C@@]23CC[C@H]4[C@@](C)(CCC[C@@]4(C)C(=O)O)[C@@H]2CC[C@@H]1C3` [SA2, kaurenoic acid], for which the inhibition at 0.005 µg/mL in experiment [1] (0 h, 0.005 μg/ml, 3T3-L1, treated Day 0-8, Oil red O) was 2 ± 21.9%. Moreover, in experiment [1] (0 h, 0.01 μg/ml, 3T3-L1, treated Day 0-8, Oil red O), the inhibition at 0.01 µg/mL turned out to be 0%. Also, the inhibition at 0.05 µg/mL in experiment [1] (0 h, 0.05 μg/ml, 3T3-L1, treated Day 0-8, Oil red O) came to 9.8 ± 13.6%. Moreover, the inhibition at 0.1 µg/mL in experiment [1] (0 h, 0.1 μg/ml, 3T3-L1, treated Day 0-8, Oil red O) turned out to be 12.6 ± 11.7%. Besides, in experiment [1] (0 h, 0.5 μg/ml, 3T3-L1, treated Day 0-8, Oil red O), the inhibition at 0.5 µg/mL was found to be 7.8 ± 17.1%. Also, the “effect on lipid accumulation, in words” value in experiment [1] was “weaker effect”.
Consider TNF-α [reference compound], for which, in experiment [2], the “Inhibition (%) of intracellular triglyceride level” value was 55.1%. Moreover, the “Concentration of Glycerol” value in experiment [3] (0.01 μg/ml, control 208.28) is 4.40 µM; in experiment [3] (TNF-α 0.01 μg/mL, control 208.28 (Table 32)), 4.40.
